Data published in patent publication US20150140123A1, “Protein expression analyses for identifying genotoxic compounds” (Merck Patent GmbH, priority 2012, published 2015).
Structures can show the parent of a compound that is named as a salt.

Tests used:
[1] = tested on: HepG2 cells; assay: High content imaging cytotoxicity parameters: selected cell count per valid field (SCC) and CMFDA cytoplasm average intensity
Procedure: (§1) HepG2 cells (Order No. HB-8065, Lot. 58483209, ATCC, Manassas, USA) were cultured in DMEM/F12 with L-Glutamine and 15 mM Hepes supplemented with 10% (v/v) FBS, 1% (v/v) penicillin (10 kU/ml)/streptomycin (10 mg/ml) solution, 0.1% (v/v) gentamicin (50 mg/ml), and 1 mM sodium pyruvate at 37° C. and 5% CO2 in culture flasks. Depending on the experiment, an appropriate number of cells were seeded onto plates after detaching of the cells using trypsin and cells were cultured at 37° C. and 5% CO2 for 24 h prior to treatment. All experiments were performed three times with cells of passages 4-20.
(§2) Cells were seeded onto black Poly-D-Lysin coated 96-well-plates (BD Biocoat, Franklin Lakes, USA) (0.02×10^6 cells/well) and left 24 h for adherence and then treated with test compounds at a maximum concentration of 1 mM which is recommended by the ICH S2(R1) guideline (EMA, 2011). For each compound, nine concentrations were tested with 2-fold serial dilutions. DMSO 1% (v/v) served as vehicle control for the experiments. The treatment procedure was different for direct-genotoxic and pro-genotoxic compounds. The treatment for direct genotoxic compounds was ongoing and was repeated daily over 48 h. Pro-genotoxic compounds were incubated for 6 h together with metabolic activation system (to limit the cytotoxic effect of the S9-mixture). After this period, cells were washed with cell media followed by 18-repeated daily over 48 h. The metabolic activation system used consisted of the following components and concentrations: 8 mM MgCl2, 32.8 mM KCl, 12 mM NADPH, 124 mM phosphate buffer and 2500 pmol/ml cytochrome P450 (CYP) content in the pre-mixture corresponding to 2.4 mM MgCl2, 9.8 mM KCl, 3.6 mM NADPH, 37.2 mM phosphate buffer, and 750 pmol/ml CYP as final concentrations after dilution 1:3.33 with cell culture media.
After treatment, cells were rinsed with PBS (Gibco Invitrogen, Karlsruhe, Germany), and then stained with 10 μM CellTracker Green 5-Chloromethylfluorescein Diacetate (CMFDA) (Invitrogen, Karlsruhe, Germany) in cell culture media for 30 min. CMFDA is per se non-fluorescent and is hydrolyzed by esterase in viable cells to a fluorescent-dye. The reaction with thiol groups leads to a cell-impermeable fluorescent-dye-adduct. The esterase activity can be used as an indicator for viability of cells (Papadopoulos et al., 1994, J Immunol Methods 177, 101-11). Afterwards, cells were washed with PBS and fixed with 3.7% Formaldehyde (Sigma-Aldrich, Taufkirchen, Germany) in PBS for 20 min. After that, cells were washed with PBS and blocked and permeabilized with 2% donkey serum (Millipore, Schwalbach, Germany) and 0.25% Triton X-100 (Sigma-Aldrich, Taufkirchen, Germany) in PBS for 30 min. Primary antibodies were diluted in Blocking/Permeabilization solution to final concentrations of 4 μg/ml anti-p-Chk1 (Ser345) goat polyclonal antibody IgG (santa cruz, Santa Cruz, USA), 4 μg/ml anti-p-ATM (Ser1981) mouse monoclonal antibody IgG1K (Millipore, Schwalbach, Germany) and added to the cells. After incubation for 16-18 h, cells were washed with 0.05% Tween 20 (Calbiochem, Darmstadt, Germany) in PBS, and the secondary antibody/16 μM Hoechst staining solution Blocking/Permeabilization solution was added. Secondary antibodies were diluted 1:400 (Alexa Fluor 555 donkey anti-goat, Alexa Fluor 647 donkey anti-mouse, Invitrogen, Karlsruhe, Germany). After an incubation of 1 h, followed by two additional washing steps with 0.05% Tween 20, cells were washed with PBS and finally PBS was added and cells were measured.
Image acquisition was performed on the ArrayScan VTI HCS Reader (Cellomics, Pittsburgh, USA) using a 20× objective. To detect enough cells, 50 images starting at the middle of each well were gathered.
• Channel 1: selected cell count per valid field • Channel 2: CMFDA cytoplasm average intensity • Channel 3: p-Chk1 (Ser345) nucleus average intensity • Channel 4: p-ATM (Ser1981) nucleus average intensity

[2] = tested on: p-p53 (Ser15), p21, p-H2A.X (Ser139), p-ATM (Ser1981), p-Chk1 (Ser345) in HepG2 cells; details: HepG2 cells ± S9, 48 h; positive if at least one of five proteins shows fold-change above threshold (2.1 p-Chk1, p-H2A.X; 1.8 p21, p-ATM; 1.9 p-p53)
Procedure: as §1, §2
Two different staining procedures were performed for each compound with and without metabolic activation system:
After treatment, cells were rinsed with PBS (Gibco Invitrogen, Karlsruhe, Germany), and then fixed with 3.7% formaldehyde (Sigma-Aldrich, Taufkirchen, Germany) in PBS for 20 min. After an additional washing step with PBS, cells were blocked and permeabilized with 2% donkey serum (Millipore, Schwalbach, Germany) and 0.25% Triton X-100 (Sigma-Aldrich, Taufkirchen, Germany) in PBS for 30 min. Primary antibodies were diluted to final concentrations of 2 μg/ml anti-p-p53 (Ser15) rabbit monoclonal antibody IgG (Invitrogen, Karlsruhe, Germany), 0.8 μg/ml anti-p21 goat polyclonal antibody IgG, (R&D systems, Minneapolis, USA); 4 μg/ml anti-p-Histone H2A.X (Ser139) mouse monoclonal antibody IgG1 (Millipore, Schwalbach, Germany) in Blocking/Permeabilization solution were added afterwards. After incubation for 16-18 h, cells were washed with 0.05% Tween 20 (Calbiochem, Darmstadt, Germany) in PBS and the secondary antibody/16 μM Hoechst staining solution in Blocking/Permeabilization solution was added. Secondary antibodies were diluted 1:400 (Alexa Fluor 488 donkey anti-rabbit, Alexa Fluor 555 donkey anti-goat, Alexa Fluor 647 donkey anti-mouse, Invitrogen, Karlsruhe, Germany). After an incubation of 1 h, followed by two additional washing steps with 0.05% Tween 20, cells were washed with PBS and finally PBS was added and cells were measured.
After treatment, cells were rinsed with PBS (Gibco Invitrogen, Karlsruhe, Germany), and then stained with 10 μM CellTracker Green 5-Chloromethylfluorescein Diacetate (CMFDA) (Invitrogen, Karlsruhe, Germany) in cell culture media for 30 min. CMFDA is per se non-fluorescent and is hydrolyzed by esterase in viable cells to a fluorescent-dye. The reaction with thiol groups leads to a cell-impermeable fluorescent-dye-adduct. The esterase activity can be used as an indicator for viability of cells (Papadopoulos et al., 1994, J Immunol Methods 177, 101-11). Afterwards, cells were washed with PBS and fixed with 3.7% Formaldehyde (Sigma-Aldrich, Taufkirchen, Germany) in PBS for 20 min.

[3] = HepG2 cells, 48 h, CMFDA cytoplasm average intensity, with rat liver S9 (+S9)
[4] = HepG2 cells, 48 h, CMFDA cytoplasm average intensity, without metabolic activation (−S9)
[5] = HepG2 cells, 48 h, selected cell count per valid field, with rat liver S9 (+S9)
[6] = HepG2 cells, 48 h, selected cell count per valid field, without metabolic activation (−S9)

## Oc1ccc(Cl)cc1Cl [2,4-Dichlorophenol]
[1]; human
  CMFDA +S9 highest conc. <50% cytotox. over control: 1000 µM
  CMFDA −S9 highest conc. <50% cytotox. over control: 1000 µM
  SCC +S9 highest conc. <50% cytotox. over control: 500 µM
  SCC −S9 highest conc. <50% cytotox. over control: 250 µM
[2]
  result for the five protein markers tested (compound set as positive or negative): positive

## COC(N)=O [Methyl carbamate]
[1]; [3]
  CMFDA +S9 highest conc. <50% cytotox. over control: 1000 µM
[1]; [4]
  CMFDA −S9 highest conc. <50% cytotox. over control: 1000 µM
[1]; [5]
  SCC +S9 highest conc. <50% cytotox. over control: 1000 µM
[1]; [6]
  SCC −S9 highest conc. <50% cytotox. over control: 1000 µM

## COS(C)(=O)=O [Methylmethane sulfonate]
[1]; human, 48 h
  CMFDA +S9 highest conc. <50% cytotox. over control: 250 µM
  CMFDA −S9 highest conc. <50% cytotox. over control: 500 µM
  SCC +S9 highest conc. <50% cytotox. over control: 500 µM
  SCC −S9 highest conc. <50% cytotox. over control: 250 µM

## NC(=S)N(C1CCCCC1)C1CCCCC1 [N,N-dicyclohexyl thiourea]
[1]; human, 48 h
  CMFDA +S9 highest conc. <50% cytotox. over control: 500 µM
  CMFDA −S9 highest conc. <50% cytotox. over control: 1000 µM
  SCC +S9 highest conc. <50% cytotox. over control: 1000 µM
  SCC −S9 highest conc. <50% cytotox. over control: 500 µM

## Cn1c(N)nc2ncc(-c3ccccc3)cc21 [PhIP•HCl, 2-Amino-1-methyl-6-phenylimidazo[4,5-f]pyridine]
[1]; [3]
  CMFDA +S9 highest conc. <50% cytotox. over control: 1000 µM
[1]; [4]
  CMFDA −S9 highest conc. <50% cytotox. over control: 500 µM
[1]; [5]
  SCC +S9 highest conc. <50% cytotox. over control: 1000 µM
[1]; [6]
  SCC −S9 highest conc. <50% cytotox. over control: 500 µM

## O=C1OC(=O)c2ccccc21 [Phthalic anhydride]
[1]; [3]
  CMFDA +S9 highest conc. <50% cytotox. over control: 1000 µM
[1]; [4]
  CMFDA −S9 highest conc. <50% cytotox. over control: 1000 µM
[1]; [5]
  SCC +S9 highest conc. <50% cytotox. over control: 1000 µM
[1]; [6]
  SCC −S9 highest conc. <50% cytotox. over control: 1000 µM

## CC(=O)[C@H]1CC[C@H]2[C@@H]3CCC4=CC(=O)CC[C@]4(C)[C@H]3CC[C@]12C [Progesterone]
[1]; human, 48 h
  CMFDA +S9 highest conc. <50% cytotox. over control: 250 µM
  CMFDA −S9 highest conc. <50% cytotox. over control: 62.5 µM
  SCC +S9 highest conc. <50% cytotox. over control: 500 µM
  SCC −S9 highest conc. <50% cytotox. over control: 125 µM

## c1ccncc1 [Pyridine]
[1]; human
  CMFDA +S9 highest conc. <50% cytotox. over control: 1000 µM
  CMFDA −S9 highest conc. <50% cytotox. over control: 1000 µM
  SCC +S9 highest conc. <50% cytotox. over control: 1000 µM
  SCC −S9 highest conc. <50% cytotox. over control: 1000 µM

## O=[As]O [Sodium arsenite]
[1]; [3]
  CMFDA +S9 highest conc. <50% cytotox. over control: 125 µM
[1]; [4]
  CMFDA −S9 highest conc. <50% cytotox. over control: 62.5 µM
[1]; [5]
  SCC +S9 highest conc. <50% cytotox. over control: 125 µM
[1]; [6]
  SCC −S9 highest conc. <50% cytotox. over control: 7.81 µM

## O=C1NS(=O)(=O)c2ccccc21.[Na] [Sodium saccharin]
[1]; human
  CMFDA +S9 highest conc. <50% cytotox. over control: 1000 µM
  CMFDA −S9 highest conc. <50% cytotox. over control: 1000 µM
  SCC +S9 highest conc. <50% cytotox. over control: 1000 µM
  SCC −S9 highest conc. <50% cytotox. over control: 1000 µM
